Measurements reported in patent publication US11608328B2, “Chemical probes to identify anti-mycobacterial MmpL3 inhibitors” (Creighton University, priority 2019, dated 2023).
Converted amounts (≈) assume the structure as drawn. “And” between values parts separate entries of the source, which are not always exact repeats. Equal entries are not always repeated. “Also recorded” adds a separate entry of the source. Where two headings read alike, the source gives them in different places. Marks after values point to notes of the source that are not given here.

Columns and labels:
[1] = tested on: MsmgΔmmpL3 expressing mmpL3tb S288T; assay type: cell-based, Mycobacterium smegmatis
[2] = tested on: MsmgΔmmpL3 expressing wild-type mmpL3tb; assay: microbe, parasite or virus in culture; assay type: cell-based; conditions: Mycolicibacterium smegmatis, MmpL3 WT, read-out: MIC
[3] = tested on: MsmgΔmmpL3 expressing mmpL3tb V684A; assay type: cell-based, Mycobacterium smegmatis
[4] = tested on: MsmgΔmmpL3 expressing mmpL3tb S591I; assay type: cell-based, Mycobacterium smegmatis
[5] = tested on: MsmgΔmmpL3 expressing mmpL3tb L189R; assay type: cell-based, Mycobacterium smegmatis
[6] = tested on: MmpL3tb-GFP in MsmgΔmmpL3/pMVGH1-mmpL3tb-GFP cells; assay type: cell-based; conditions: 2 μM probe, 4 h at 37° C.
[7] = tested on: MsmgΔmmpL3 expressing mmpL3tb S309C; assay type: cell-based, Mycobacterium smegmatis
[8] = tested on: MsmgΔmmpL3 expressing mmpL3tb F644C; assay type: cell-based, Mycobacterium smegmatis
[9] = tested on: MsmgΔmmpL3 expressing mmpL3tb T311I; assay type: cell-based, Mycobacterium smegmatis
[10] = tested on: MsmgΔmmpL3 expressing mmpL3tb G253E; assay type: cell-based, Mycobacterium smegmatis
[11] = tested on: MsmgΔmmpL3 expressing mmpL3tb V684G; assay type: cell-based, Mycobacterium smegmatis
purified MmpL3tb protein = purified MmpL3tb protein (Mycobacterium tuberculosis, UniProt P9WJV5); assay: Surface Plasmon Resonance binding to immobilized MmpL3tb; conditions: for ka2 / kd1 / kd2 / ka1: SPR global fit; for ka1: HEPES-TX buffer with 5% DMSO; for Model (best-fit kinetic model): SPR sensorgrams fit globally; for Kd: equilibrium dissociation constant calculated from the rate constants; for SPR binding signal: in words
purified MmpL3tb protein, sequence (P9WJV5 whole entry): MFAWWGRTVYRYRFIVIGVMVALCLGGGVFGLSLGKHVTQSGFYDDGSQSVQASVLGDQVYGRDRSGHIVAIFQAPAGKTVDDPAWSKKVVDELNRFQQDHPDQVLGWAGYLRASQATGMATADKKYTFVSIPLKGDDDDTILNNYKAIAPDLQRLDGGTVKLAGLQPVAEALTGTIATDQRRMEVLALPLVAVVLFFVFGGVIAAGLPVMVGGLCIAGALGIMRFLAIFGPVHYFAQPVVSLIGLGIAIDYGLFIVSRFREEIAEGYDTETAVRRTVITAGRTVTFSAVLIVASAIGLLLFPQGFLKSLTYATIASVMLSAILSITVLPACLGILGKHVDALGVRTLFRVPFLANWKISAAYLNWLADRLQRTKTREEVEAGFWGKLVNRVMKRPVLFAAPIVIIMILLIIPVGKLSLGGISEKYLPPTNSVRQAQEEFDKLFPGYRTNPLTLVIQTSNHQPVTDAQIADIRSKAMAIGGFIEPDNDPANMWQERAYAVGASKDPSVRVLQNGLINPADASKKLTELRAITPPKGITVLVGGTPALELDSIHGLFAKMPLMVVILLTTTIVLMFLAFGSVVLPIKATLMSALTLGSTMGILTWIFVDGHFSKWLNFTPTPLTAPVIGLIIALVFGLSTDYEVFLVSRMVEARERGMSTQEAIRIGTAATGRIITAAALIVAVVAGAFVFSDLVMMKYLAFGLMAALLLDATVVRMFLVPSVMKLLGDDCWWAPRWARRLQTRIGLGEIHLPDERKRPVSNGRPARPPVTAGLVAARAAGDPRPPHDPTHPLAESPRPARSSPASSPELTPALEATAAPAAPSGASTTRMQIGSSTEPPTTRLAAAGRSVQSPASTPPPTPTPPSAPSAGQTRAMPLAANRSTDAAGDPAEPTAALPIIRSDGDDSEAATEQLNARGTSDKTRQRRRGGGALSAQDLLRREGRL

[12] = tested on: MsmgΔmmpL3 expressing mmpL3tb Q372R; assay type: cell-based, Mycobacterium smegmatis
[13] = tested on: MsmgΔmmpL3 expressing mmpL3tb L567P; assay type: cell-based, Mycobacterium smegmatis
[14] = molecular target: T1, MmpL3tb- and MmpL3tb-GFP-coated particles (Mycobacterium tuberculosis, UniProt P9WJV5); assay type: binding; conditions: 15 min at room temperature; various probe concentrations
T1 construct: His tag; made in house; host or cells: Mycobacterium smegmatis ΔmmpL3 carrying pMVGH1-mmpL3tb or pMVGH1-mmpL3tb-gfp
T1 sequence (P9WJV5 whole entry): as above

E. coli BL21(DE3) IMVs = assay: Succinate-driven proton translocation assay (ACMA) in inverted membrane vesicles; assay type: biochemical; conditions: 2 μg/mL
Experimental: (§1) FIG. 19A: The reactions were initiated by adding 5 mM succinate. Upon stabilization of the signal, control compounds (INH, RIF, nigericin), the MmpL3 inhibitors or diluent (water, used for INH, or 0.2% DMSO, used for all other compounds) were added and proton translocation monitored fluorimetrically. MmpL3 inhibitors and controls were used at one and four times their MIC concentrations against Mtb. Shown are the averages and standard deviations (error bars) of triplicate measurements.
(§2) Succinate-driven proton translocation assays with the fluorescent substrate ACMA were conducted as previously described (see e.g., Li et al. J. Med. Chem. 2014, 57: 3126-3139) to determine the effect of MmpL3 inhibitors on the electrochemical proton gradient of Mtb H37Rv mc^26206 and E. coli BL21(DE3) IMVs. IMVs (0.18 mg/mL membrane proteins) were pre-incubated at 37° C. in 10 mM HEPES-KOH pH 7.5, 100 mM KCl, 5 mM MgCl2 containing 2 μM ACMA and the baseline monitored for 10 min with a fluorescence spectrophotometer (Victor X5, PerkinElmer). The reaction was then initiated by adding 5 mM succinate. Upon stabilization of the signal, control compounds (INH, RIF, nigericin), MmpL3 inhibitors, or diluent (0.2% DMSO or water) were added and proton translocation monitored fluorimetrically. The excitation and emission wavelengths were 410 nm and 480 nm, respectively.

[15] = tested on: MsmgΔmmpL3 expressing mmpL3tb G253R; assay type: cell-based, Mycobacterium smegmatis
MmpL3tb (MmpL3^WT) = MmpL3tb (MmpL3^WT) (Mycobacterium tuberculosis, UniProt P9WJV5); assay type: binding; conditions: 50, 100 and 200 μM
MmpL3tb (MmpL3^WT), sequence (P9WJV5 whole entry): as above

[16] = tested on: MsmgΔmmpL3 expressing mmpL3tb S591W; assay type: cell-based, Mycobacterium smegmatis
[17] = tested on: MsmgΔmmpL3 expressing mmpL3tb G253W; assay type: cell-based, Mycobacterium smegmatis
[18] = tested on: MsmgΔmmpL3 expressing mmpL3tb F644C/I/L; assay type: cell-based, Mycobacterium smegmatis
purified MmpL3-GFP = purified MmpL3-GFP (Mycobacterium tuberculosis, UniProt P9WJV5); assay type: binding; conditions: 2 μM Compound 2 with increasing inhibitor concentrations
purified MmpL3-GFP, sequence (P9WJV5 whole entry): as above

[19] = tested on: transmembrane electrochemical proton gradient (ΔpH) of intact Mtb H37Rv mc^26206 cells; assay: Electrochemical proton gradient measurement with CMFDA in intact cells; assay type: cell-based, Mycobacterium tuberculosis
[20] = tested on: MsmgΔmmpL3 expressing mmpL3tb V684W; assay type: cell-based, Mycobacterium smegmatis
[21] = tested on: MsmgΔmmpL3 expressing mmpL3tb LI89A; assay: microbe, parasite or virus in culture; assay type: cell-based; conditions: Mycolicibacterium smegmatis; Table 2; mutant LI89A; read-out: MIC
[22] = tested on: MsmgΔmmpL3 expressing mmpL3tb F644Y; assay type: cell-based, Mycobacterium smegmatis
[23] = tested on: MsmgΔmmpL3 expressing mmpL3tb S591G; assay type: cell-based, Mycobacterium smegmatis
[24] = tested on: Mtb H37Rv mc^26206 inverted membrane vesicles (IMVs); assay: Succinate-driven proton translocation assay (ACMA) in inverted membrane vesicles; assay type: biochemical, Mycobacterium tuberculosis; conditions: one and four times MIC against Mtb
Experimental: as §1, §2

[25] = tested on: transfer of mycolic acids onto their cell envelope acceptors in MsmgΔmmpL3/pMVGH1-mmpL3tb; assay type: cell-based; conditions: 3 hours
[26] = tested on: MsmgΔmmpL3 expressing mmpL3tb V684I; assay type: cell-based, Mycobacterium smegmatis
Mtb = assay: MIC values against Mtb used for the PMF assays; assay type: cell-based, Mycobacterium tuberculosis; conditions: Mycobacterium tuberculosis; against Mtb; FIG. 8 legend; read-out: MIC values
[27] = tested on: transmembrane potential (ΔΨ) of intact Mtb H37Rv mc^26206 cells; assay: Membrane potential measurement with DiOC2(3) in intact cells; assay type: cell-based, Mycobacterium tuberculosis

| Structure (SMILES) | MIC [1] | MIC ([2]; Tables 1A-1B) [mg/L] | MIC [3] | MIC [4] | MIC [5] | colocalization with MmpL3tb-GFP [6] | MIC [7] | MIC [8] | MIC [9] | MIC [10] | MIC [11] | ka2 (purified MmpL3tb protein) | kd1 (purified MmpL3tb protein) [s⁻¹] | kd2 (purified MmpL3tb protein) [s⁻¹] | ka1 (purified MmpL3tb protein) [M⁻¹ s⁻¹] | Model (best-fit kinetic model) (purified MmpL3tb protein) | Kd (purified MmpL3tb protein; read-out: KD1) [µM] | SPR binding signal (purified MmpL3tb protein) | MIC [12] | MIC [13] | also measured |
| --- | --- | --- | --- | --- | --- | --- | --- | --- | --- | --- | --- | --- | --- | --- | --- | --- | --- | --- | --- | --- | --- |
| CN(C)c1ccc2c(-c3ccc(C(=O)NCCCCCCn4cc(COc5ccc6[nH]c(C(=O)NC7CCCCCCC7)cc6c5)nn4)cc3C(=O)O)c3ccc(=[N+](C)C)cc-3oc2c1 [Compound 1] | >32^b μg/mL | 8 | >32^b μg/mL | >32^b μg/mL | >32^b μg/mL | colocalization of the probes with MmpL3tb-GFP | >32^b μg/mL | 16 µg/mL | >32^b μg/mL | >32^b μg/mL | >32^b μg/mL | 0.039 1/RU*s | 0.19 | 0.0273 | 2138.3 | Two-state reaction | 36.1 | strong SPR signals | >32^b μg/mL | 32^b μg/mL | probe binding to coated particles (MFI) [14]: concentration-dependent binding |
| C[C@@H]1C(NC(=O)c2cc3cc(OCc4cn(CCCCCCNC(=O)c5ccc(-c6c7ccc(=[N+](C)C)cc-7oc7cc(N(C)C)ccc67)c(C(=O)O)c5)nn4)ccc3[nH]2)C[C@H]2C[C@@H]1C2(C)C (stereo partly shown) [Compound 2] | 4 µg/mL | 4 | 4 µg/mL | 8 µg/mL | 8 µg/mL | colocalization of the probes with MmpL3tb-GFP | 8 µg/mL | 8 µg/mL | 4 µg/mL | 8 µg/mL | 4 µg/mL | 540.582 1/RU*s | 0.02 | 0.1556 | 36380.1 | Heterogeneous ligand | 0.5 | strong SPR signals | 16^b μg/mL | 4 µg/mL | Kd (purified MmpL3tb protein; read-out: KD2): 288 µM; probe binding to coated particles (MFI) [14]: concentration-dependent binding |
| CC(C)=CCC/C(C)=C/CNCCNC1C2CC3CC(C2)CC1C3 (stereo not shown) [SQ109] | 3.13^a μg/mL | 0.39 (≈ 1.18 µM) | – | – | – | – | 6.25^a μg/mL | 1.56^b μg/mL | 0.78 µg/mL (≈ 2.36 µM) | 1.25^b μg/mL and 1.25 μg/mL | 0.39 μg/mL and 0.31-0.62^ μg/mL | 0.025 1/RU*s | 2.32 | 0.0436 | 1208.2 | Two-state reaction | – | strong SPR signals | 0.78 µg/mL (≈ 2.36 µM) | 1.56^b μg/mL | MIC ([2]; Table 2): 0.31 mg/L (≈ 0.938 µM); effect on ΔpH of E. coli IMVs (E. coli BL21(DE3) IMVs): collapse the ΔpH of E. coli IMVs; also recorded: similarly dissipated the pH gradient of IMVs prepared from E. coli; MIC [15]: 0.31-0.62^c μg/mL; BLI binding signal (MmpL3tb (MmpL3^WT)): consistently bound to MmpL3tb with the strongest signals; MIC [16]: 0.31^c μg/mL; MIC [17]: 0.15-0.3^d μg/mL; MIC [18]: 0.62-1.25^ μg/mL; displacement of Compound 2 from purified MmpL3tb (purified MmpL3-GFP): not significant; effect on electrochemical proton gradient (ΔpH) [19]: collapsed ΔpH; MIC [20]: 0.07-0.15^d μg/mL; MIC [21]: 0.31 to 0.62 mg/L (≈ 0.938 to 1.88 µM); MIC [22]: 0.15-0.31^c μg/mL; MIC [23]: 0.31^c μg/mL; effect on ΔpH of Mtb IMVs [24]: increase of fluorescence intensity indicative of ΔpH collapse; inhibition of transfer of mycolic acids to cell envelope acceptors [25]: actually targeted MmpL3tb in the Msmg recombinant system; MIC [26]: 0.31-0.62^ μg/mL; MIC (Mtb): 2.36 µM (≈ 0.78 µg/mL); effect on membrane potential (ΔΨ) [27]: dissipated ΔΨ in a concentration-dependent manner |
